Where two headings read alike, the source gives them in different places.
Legend:
[1] = tested on: HCT116^MTAP Deletion cells; assay: Anti-proliferation assay on cells (Cell-Titer Glo, 10 days); format: cell-based; details: HCT116^MTAP Deletion cells, 10 days incubation, CTG readout, read-out: HCT116^MTAP Deletion GI50
How it was run: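 HCT116^MTAP Deletion cells seeded at 50 cells/well and exposed to 10-point 3-fold compound dilutions in duplicate (0.1% DMSO) for 10 days at 37 °C. Viability read by CellTiter-Glo luminescence; IC50 derived from GI50 curves of concentration versus inhibition.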

HCT116 cells = assay: as above; format: cell-based; details: ratio of GI50 values
Method: Assay example 1: Method of anti-proliferation assay on cells
HCT116^MTAP Deletion cells were from Pharmaron (China); HCT116 cells were from ATCC; McCoy's 5A medium was purchased from Invitrogen (USA); penicillin-streptomycin and fetal bovine serum were purchased from Gibco (USA); a 384-well plate was purchased from PerkinElmer (USA); and Cell-Titer Glo reagent was purchased from Promega (USA).
Compound dissolution: All the compounds were dissolved in dimethyl sulfoxide (DMSO) and then stored. The compounds were stored at room temperature in a dry condition for 3 months for short term storage or at -20 °C for long term storage.
Cell culture and passaging
The cells were cultured strictly in accordance with ATCC requirements. The cell culture medium (McCoy's 5A medium + 10% fetal bovine serum + 1% penicillin + streptomycin) was transferred to a 15 mL centrifuge tube and centrifuged at 1000 rpm for 5 min. The supernatant was removed. The cells were resuspended with complete culture medium, inoculated into a culture dish at the required density, and cultured in an incubator at 37 °C, 95% humid air, and 5% carbon dioxide. The culture medium was replenished or the cells were passaged every 2-3 days depending on the cell growth condition.
Cell proliferation activity assay
When the confluency of cells in the culture dish reached about 90%, the cells were washed twice with PBS, and then treated with trypsin to become single cells. The cells were counted, and 40µl of the cells was inoculated into each well of a 384-well plate (50 cells/well). The plate was equilibrated at 37 °C and 5% carbon dioxide for 10 to 15 minutes. The compounds were injected into the 384-well plate using Echo550, and positive control and negative control (0.1% DMSO) were set up. Each compound was subjected to a 3-fold dilution, resulting in 10 concentration gradients, in duplicate, and the content of DMSO was 0.1%. The 384-well plate was incubated in a cell culture incubator for 10 days.
Then, 40 µl of cell proliferation assay reagent (CTG) was added to the 384-well plate, and the plate was shaken to mix well. Then, the 384-well plate was incubated at 37 °C and 5% carbon dioxide in the dark for 30 minutes. The data were read using the Envision multifunctional microplate reader. […] According to the different drug concentrations and their corresponding inhibition rates, the GI50 curve was drawn using GraphPad 8.0 software. The data were analyzed, and the final IC50 value was obtained.
In addition, the compounds of the present disclosure also have selectivity for mutant HCT116 cells. […] The selectivity data of representative compounds are shown in Table 2: Table 2 Selectivity data of representative compounds

[2] = Brain permeability in CD1 mice after oral gavage administration; format: in vivo, Mouse/CD1/Male; parameters: unit not given here; details: 30 mg/kg PO, 0.25-8 hours
Method: Assay example 4 Investigation of brain permeability in CD1 mice after oral gavage administration
4.1.1 Information of administration
4.1.3 Collection and processing of blood sample
4.1.4 Evaluation during the in vivo experiment
4.2 Test sample and preparation
4.2.1 Information of test sample
All the samples were analyzed by LC-MS/MS, and the concentration of the drug to be tested in the samples was determined by the standard curve method.
For the plasma assay results, the pharmacokinetic parameters were calculated using WinNonlin (Phoenix™) or other similar software.

[3] = tested on: SDMA in HCT116^MTAP Deletion; assay: In-Cell Western Assay of cellular SDMA; format: cell-based; details: HCT116^MTAP Deletion cells, 96 hours; read-out: SDMA inhibition IC50 (µM) in HCT116^MTAP Deletion
Method: (§1) Compound dissolution: All the compounds were dissolved in dimethyl sulfoxide (DMSO) and then stored. The compounds were stored at -20°C for long term storage.
(§2) 2.3 Cell culture and passaging
The cells were cultured strictly in accordance with ATCC requirements. […] The supernatant was removed. The cells were resuspended with complete culture medium, inoculated into a culture dish at the required density, and cultured in an incubator at 37 °C, 95% humid air, and 5% carbon dioxide. The culture medium was replenished or the cells were passaged every 2-3 days depending on the cell growth condition.
2.4 In-Cell Western Assay of SDMA
When the confluency of cells in the culture dish reached about 90%, the cells were washed twice with PBS, and then digested with trypsin. 100 µl of the cells was inoculated into each well of a 96-well plate (800 cells/well). The plate was incubated overnight in a 37 °C and 5% CO2 incubator. 50 µL of 3x final concentration of a compound was added to the cell culture plate. Each compound was subjected to a 3-fold dilution, resulting in 10 concentration gradients, in duplicate, and the final concentration of DMSO was 0.5%. The plate was incubated in a 37 °C and 5% CO2 incubator for 96 hours.
150µL of 8% paraformaldehyde was added to each well, and the plate was incubated at room temperature for 15 minutes. The supernatant was discarded. The plate was washed with PBS, and 200µL of freshly prepared 1x Permeabilization buffer was added to each well. The plate was incubated at room temperature for 30 minutes. The supernatant was discarded. 200µL of 1x Blocking buffer was added to each well, and the plate was incubated at room temperature for 2 hours. The supernatant was discarded. 50µL of primary antibody (CST, 1x Incubation buffer 1:500 dilution) was added to each well, and the plate was incubated at 4°C overnight. The supernatant was discarded. 250µL of 1x Washing buffer was added to each well, and the plate was washed three times. 50µL of secondary antibody (IRDye 800CW Goat anti-Rabbit IgG and CellTag 700 dye, 1:800 and 1:500 diluted in Incubation buffer) was added to each well, and the plate was incubated at room temperature for 1 hour. The supernatant was discarded. The plate was washed with 1x Washing buffer. Signals were detected using Licor Odyssey CLX. […] According to the different drug concentrations and their corresponding inhibition rates, the IC50 curve was drawn using GraphPad 8.0 software. The data were analyzed, and the final IC50 value was obtained. […] Table 3 Inhibitory activity on cellular SDMA

SDMA in HCT116 = assay: In-Cell Western Assay of cellular SDMA; format: cell-based; details: HCT116 cells, 96 hours; read-out: SDMA inhibition IC50 (µM) in HCT116
From the text: Assay example 2: Method of In-Cell Western Assay of cellular SDMA
HCT116^MTAP Deletion cells were from Horizon; HCT116 cells were from ATCC; RPMI-1640 medium was purchased from ATCC (USA); penicillin-streptomycin was purchased from Gibco (USA); fetal bovine serum was purchased from ExCell; 96-well plate was purchased from Corning (USA); Symmetric Di-Methyl Arginine Motif [sdme-RG] antibody was purchased from CST (USA); IRDye 800CW Goat anti-Rabbit IgG secondary antibody was purchased from LI-COR (USA), and CellTag 700 stain was purchased from LI-COR (USA).
as §1, §2
The cells were cultured strictly in accordance with ATCC requirements. The cell culture medium (RPMI-1640 medium + 10% serum + 1% penicillin + streptomycin) was transferred to a 15 mL centrifuge tube and centrifuged at 1000 rpm for 5 min. The supernatant was removed. […]
150µL of 8% paraformaldehyde was added to each well, and the plate was incubated at room temperature for 15 minutes. […] Signals were detected using Licor Odyssey CLX. […] The data were analyzed, and the final IC50 value was obtained. […]

Row | SMILES | GI50 [1] | Selectivity multiple of HCT116^MTAP WT GI50/ HCT116^MTAP Deletion GI50 (HCT116 cells) | IC50 [3] | GI50 ([1]; 240 h) | other results
1 | CN(C(=O)C(=O)Nc1cnc(N)c2c1cnn2C)C1COc2cc(C(F)(F)F)ccc21 (single isomer, unassigned) [Example 112-P1] | < 0.01 µM | 385 | < 0.01 µM | – | Brain AUClast/D ([2]; brain): 428; CSF AUClast/D ([2]; cerebrospinal fluid): 6.15; Plasma AUClast/D ([2]; plasma): 464; IC50 (SDMA in HCT116): 0.1 to 1 µM
2 | CN(C(=O)C(=O)Nc1cnc(N)c2c1cnn2C)C1COCc2nc(C(F)(F)F)ccc21 (single isomer, unassigned) [Example 152-P2] | < 0.01 µM | – | 0.01 to 0.1 µM | – | –
3 | C[C@H](c1ncccn1)N(Cc1ccc(C(F)(F)F)cn1)C(=O)C(=O)Nc1cnc(N)c2c1COC2 [Example 2] | 0.01 to 0.1 µM | – | < 0.01 µM | – | –
4 | CC(C)C(C)N(Cc1ccc(C(F)(F)F)cn1)C(=O)C(=O)Nc1cnc(N)c2c1cnn2C (centres unmarked) [Example 110-P1] | – | 146 | – | < 0.01 µM | –
5 | CN(C(=O)C(=O)Nc1cnc(N)c2c1cnn2C)C1COCc2cc(C#N)ccc21 (centres unmarked) [Example 111] | – | 354 | – | < 0.01 µM | –
6 | CCC(C)N(Cc1ccc(OC(F)(F)F)cn1)C(=O)C(=O)Nc1cnc(N)c2c1cnn2C (centres unmarked) [Example 113] | – | 125 | – | < 0.01 µM | –
7 | CN(C(=O)C(=O)Nc1cnc(N)c2c1cnn2C)C1COCc2cc(-c3cnn(C)c3)ccc21 (centres unmarked) [Example 124-P1] | < 0.01 µM | 215 | – | – | –
8 | CN(C(=O)C(=O)Nc1cnc(N)c2c1cnn2C)C1COCc2cc(C3=CCOCC3)ccc21 (centres unmarked) [Example 132-P1] | < 0.01 µM | 266 | < 0.01 µM | – | –
9 | Cc1ncc(-c2ccc3c(c2)COCC3N(C)C(=O)C(=O)Nc2cnc(N)c3c2cnn3C)s1 (centres unmarked) [Example 135] | < 0.01 µM | 285 | < 0.01 µM | – | –

Further lines, with some results ahead:

Row | GI50 [1] | Selectivity multiple of HCT116^MTAP WT GI50/ HCT116^MTAP Deletion GI50 (HCT116 cells) | IC50 [3] | GI50 ([1]; 240 h) | SMILES | other results
10 | – | – | < 0.01 µM | – | CN(C(=O)C(=O)Nc1cnc(N)c2c1cnn2C)C1COCc2cc(-c3ccnn3C)ccc21 (centres unmarked) [Example 156-P1] | –
11 | – | 193 | – | < 0.01 µM | CN(C(=O)C(=O)Nc1cnc(N)c2c1cnn2C)C1COCc2cc(C3=CCC(F)(F)CC3)ccc21 (centres unmarked) [Example 157] | –
12 | < 0.01 µM | 169 | – | – | CN(C(=O)C(=O)Nc1cnc(N)c2c1cnn2C)C1COc2cc(-c3ccnn3C)ccc21 (centres unmarked) [Example 161] | –
13 | – | 337 | – | 0.01 to 0.1 µM | CN(C(=O)C(=O)Nc1cnc(N)c2c1cnn2C)C1COc2cc(-c3cnc(C(F)(F)F)s3)ccc21 (centres unmarked) [Example 164] | –
14 | – | 295 | – | 0.01 to 0.1 µM | Cc1cc(-c2ccc3c(c2)OCC3N(C)C(=O)C(=O)Nc2cnc(N)c3c2cnn3C)on1 (centres unmarked) [Example 165] | –
15 | – | 61 | – | < 0.01 µM | CN(C(=O)C(=O)Nc1cnc(N)c2c1cnn2C)C1COCc2cc(C(F)(F)F)c(F)cc21 (centres unmarked) [Example 167] | –
16 | – | 116 | – | < 0.01 µM | Cc1nn(C)c(C)c1-c1ccc2c(c1)COCC2N(C)C(=O)C(=O)Nc1cnc(N)c2c1cnn2C (centres unmarked) [Example 178] | –
17 | – | 221 | – | < 0.01 µM | Cc1ccc(-c2ccc3c(c2)COCC3N(C)C(=O)C(=O)Nc2cnc(N)c3c2cnn3C)cn1 (centres unmarked) [Example 184] | –
18 | – | 240 | – | < 0.01 µM | CN(C(=O)C(=O)Nc1cnc(N)c2c1cnn2C)C1COCc2cc(-c3ccc(C(F)(F)F)nc3)ccc21 (centres unmarked) [Example 185] | –
19 | – | 252 | < 0.01 µM | – | CN(C(=O)C(=O)Nc1cnc(N)c2c1cnn2C)C1COc2cc(-c3ccnn3C)ccc21 (centres unmarked) [Example 192-P1] | –
20 | – | 429 | – | < 0.01 µM | CN(C(=O)C(=O)Nc1cnc(N)c2c1cnn2C)C1COCc2cc(-c3cnc(C4CC4)s3)ccc21 (centres unmarked) [Example 194] | –
21 | – | 226 | – | < 0.01 µM | CN(C(=O)C(=O)Nc1cnc(N)c2c1cnn2C)C1COCc2c1ccc(C(F)(F)F)c2F (centres unmarked) [Example 195] | –
22 | – | 128 | – | < 0.01 µM | Cc1ncccc1-c1ccc2c(c1)COCC2N(C)C(=O)C(=O)Nc1cnc(N)c2c1cnn2C (centres unmarked) [Example 201] | –
